# Measurements from paper PMC5314971 (Bioorganic & medicinal chemistry letters, 2017).
# Legend:
# [1] = tested on: acetylated tubulin in B16F10 cells; experiment: western blot for accumulation of acetylated tubulin in B16F10 cells; type: cell-based
# HDAC1 = HDAC1 (Homo sapiens, UniProt Q13547); experiment: cell-free HDAC isoform inhibition assay, HDAC1
# B16F10 [2] = experiment: verapamil; details: B16F10, verapamil at 100 µM, data not shown
# A375 = experiment: antiproliferation study, A375 melanoma cell line; details: SAHA as control HDACi
# B16F10 [3] = experiment: antiproliferation study, B16F10 melanoma cell line
# [4] = phase II clinical trial; ref 3a; cited from earlier work
# [5] = increasing drug concentrations (5–50 µM)
# HDAC1, sequence (Q13547 whole entry, species assumed, canonical isoform): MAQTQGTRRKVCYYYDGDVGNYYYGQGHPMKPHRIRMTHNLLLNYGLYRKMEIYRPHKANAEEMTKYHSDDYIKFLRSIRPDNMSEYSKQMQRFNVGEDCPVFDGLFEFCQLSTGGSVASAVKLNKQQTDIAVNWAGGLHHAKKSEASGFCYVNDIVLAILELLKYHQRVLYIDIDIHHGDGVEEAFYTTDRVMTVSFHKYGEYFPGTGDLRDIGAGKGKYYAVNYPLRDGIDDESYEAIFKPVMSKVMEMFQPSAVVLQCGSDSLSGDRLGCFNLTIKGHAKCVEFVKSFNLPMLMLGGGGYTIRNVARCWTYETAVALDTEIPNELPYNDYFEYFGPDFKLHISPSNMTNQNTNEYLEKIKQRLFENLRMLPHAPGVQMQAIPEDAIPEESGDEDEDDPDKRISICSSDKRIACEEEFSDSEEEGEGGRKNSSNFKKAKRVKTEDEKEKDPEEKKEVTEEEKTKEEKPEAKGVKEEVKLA
compound,measurement,setting,value
"COc1ccc2cc(-c3cn(CCCCCC(=O)NO)nn3)ccc2c1 [7u, reference compound]",accumulation of acetylated tubulin,[1]; 20 µM,significant accumulation of acetylated tubulin
CCN(CC)CCNC(=O)c1ccc(-c2cn(CCCCCCC(=O)NO)nn2)cc1 [10a],selectivity for HDAC1 compared to HDAC6,HDAC1,about four-fold
same,effect of verapamil co-treatment on cytotoxic effect,B16F10 [2],did not improve the cytotoxic effect
same,accumulation of acetylated tubulin,[1]; [5],gave a similar effect
same,fold less active relative to SAHA against A375,A375,~6 fold
same,fold less active relative to SAHA against B16F10,B16F10 [3]; SAHA as control HDACi,about 3 fold
CCN(CC)CCNC(=O)c1ccc(-c2cn(CCCCCC(=O)NO)nn2)cn1 [11a],selectivity for HDAC1 compared to HDAC6,HDAC1,almost indistinguishable
CCN(CC)CCNC(=O)c1ccc(-c2cn(CCCCCCC(=O)NO)nn2)cn1 [11b],effect of verapamil co-treatment on cytotoxic effect,B16F10 [2],did not improve the cytotoxic effect
CCN(CC)CCNC(=O)c1ccc(I)cc1 [N-(2-(diethylamino)ethyl)-4-iodobenzamide],toxicity to the patients,[4],little toxicity
"O=C(CCCCCCC(=O)Nc1ccccc1)NO [SAHA, reference compound]",accumulation of acetylated tubulin,[1]; 20 µM,significant accumulation of acetylated tubulin
CCN(CC)CCNC(=O)c1ccc(C(=O)ONC(=O)CCCCCn2cc(-c3ccc4cc(OC)ccc4c3)nn2)cc1 [compound 14],accumulation of acetylated tubulin,[1]; [5],increase in the level of acetylated tubulin in a concentration dependent manner
same,growth inhibitory effect compared with compound 10a,"B16F10 [3]; B16F10, at 50 µM (Fig. 4)",much more potent than compound 10a
same,growth inhibitory effect compared with compound 10a,"B16F10 [3]; B16F10, dosed at 25 µM (Fig. 4)",same level of potency as compound 10a
